# Columns and labels:
# PARP-1 = molecular target: T1, PARP-1 (Homo sapiens, UniProt P09874); assay: Western blot of PARP-1 inhibitor activity in whole cell lysates (poly-(ADP)-ribose levels); format: cell-based; details: 1 μM for 24 hours
# T1 construct: endogenous in cells; host or cells: hADSCs (inferred)
# Excerpt: (§1) Material for western blot analysis (cultured cells or tissue) was lysed in ice-cold RIPA lysis buffer (Thermo Scientific 89900) and sonicated using a Covaris S2 sonicator (10% duty cycle, Intensity 5, Bursts per minute 100, 120 seconds). Total protein concentration in each sample was quantified using Quick Start Bradford 1× Dye Reagent (BioRad, 5000205) following manufacturer's protocol. Samples were then mixed with NUPAGE LDS sample loading buffer (ThermoFisher, NP0007) and NUPAGE sample reducing buffer (ThermoFisher, NP0004), and heat denatured at 70° C. for 10 minutes. Proteins were separated on 4-12% precast polyacrylamide gels (ThermoFisher, NP0321) by electrophoresis and transferred to 0.45 μm nitrocellulose membrane. […] Proteins were detected with HRP secondary antibodies listed above for 1 hour at RT followed by ECL Western Blotting Substrate (ThermoFisher, 32106) using manufacturer's instructions. […]
# (§2) To further assess if H1.0K180 methylation is dependent on the DNA damage repair pathway protein PARP-1 activity, western blot analysis was performed according to methods described in Example 1, to examine chromatin-bound H1.0K180me2 and γH2A.X upon treatment with bleomycin. […] Thus it was determined that H1.0K180 methylation is independent of DNA damage repair pathway protein PARP-1 activity
# [1] = test system: chromatin-bound H1.0K180me2 and γH2A.X; assay: Western blot of chromatin-bound H1.0K180me2 and γH2A.X upon bleomycin with PARP-1 inhibition; format: cell-based, human; details: 1 μM for 24 hours, bleomycin treatment
# Excerpt: as §1, §2
# H1.0K180me2 [2] = assay: Western blot for H1.0K180me2 in SR hADSCs treated with bleomycin after rapamycin or everolimus pretreatment; format: cell-based, human; details: 500 nM, 24 hours pretreatment, then bleomycin 2 hours
# Excerpt: as §1
# To test if rapamycin derivatives may block H1.0K180me2 appearance upon DNA damage, SR hADSCs were treated with bleomycin for 2 hours with or without pretreatment with rapamycin or everolimus (a derivative of rapamycin) for 24 hours. Cells were then lysed and analyzed be western blot for H1.0K180me2, γH2A.X and β-Actin, according to methods described in Example 1.
# histone H1.0 mRNA = assay: RT-PCR analysis of histone H1.0 mRNA expression in hADSCs after bleomycin; format: cell-based, human
# Experimental: (§3) For replicative senescence, hADSCs were grown in culture until reaching replicative exhaustion (PD 41-46). For acute DNA damage conditions, SR hADSCs (PD 4-10) were treated with 50 μg/ml bleomycin sulfate (Cayman Chemical, 13877) in growth media for 2 hours. For genotoxic stress-induced senescence, SR hADSCs (PD 4-10) were treated with 50 μg/ml bleomycin sulfate (Cayman Chemical, 13877) in growth media for 2 hours then washed with PBS and given fresh growth media without bleomycin. Cells were then grown for 3 days before collection.
# RT-PCR analysis of histone H1.0 mRNA expression was performed on total RNA derived from self-replicating hADSCs, hADSCs treated with bleomycin for 2 hours (acute DNA damage) and hADSCs treated with bleomycin and allowed to senesce for 3 days (genotoxic stress-induced senescence). H1.0 mRNA expression increases over 2-fold upon acute DNA damage, and remains elevated (1.5-fold over SR) upon genotoxic stress induced senescence.
# secreted H1.0K180me2 = assay: Slot blot of conditioned medium of hADSCs after bleomycin (secretion); format: cell-based, human
# Experimental: 0.5 μl of serum sample or known amounts of synthesized peptide were diluted in 200 μl TBS. Samples were then heat denatured at 70° C. for 10 minutes before being transferred to nitrocellulose membrane using a vacuum manifold slot blot apparatus (BioRad, 1706542). The membrane was blocked with 5% non-fat milk in PBS-T for 30 minutes at RT then immunoblotted with the above primary antibodies at 4° C. overnight. Proteins were detected with HRP secondary antibodies listed above for 1 hour at RT followed by ECL Western Blotting Substrate (ThermoFisher, 32106) using manufacturer's instructions. All washes between steps were with PBS-T. Membranes were imaged with Omega LUM-C imaging system (Gel Company). Slot blot bands for each sample were then quantified using ImageJ.
# This signifies secretion out of the cells. An increase in DNA fragmentation factor (DFFB/DFF40/CAD) secretion upon GSI-SEN was seen, in a similar manner to H1.0K180me2 starting 48 hours after treatment (FIG. 7B).
# SR hADSCs, hADSCs treated with bleomycin for 2 hours (acute DNA damage) and hADSCs treated with bleomycin and allowed to senesce for 3 days (genotoxic stress induced senescence) were lysed and fractionated into soluble and chromatin bound fractions. These fractions were then subjected to LC-MS/MS analysis. Peptide expression levels were taken as the total area under the LC-MS/MS relative intensity curve, and individual peptides were unambiguously assigned to proteins using Pinpoint software, version 1.4 (Thermo Scientific). The areas of all peptides assigned to an individual protein were summed to yield protein expression levels, which were normalized against the total protein library size for each sample. For each cellular fraction, H1.0 peptide abundance is represented as a percentage of total H1.0 peptides observed in each condition. Normalized absolute values of H1.0 peptide levels in each fraction were also shown. […] Culture media from SR hADSCs treated with bleomycin was collected for slot blot analysis with α-H1.0 and α-H1.0K180me2 antibodies to assess secretion of H1.0 to the extracellular matrix (ECM). The experiment was carried out according to methods described in Example 1.
# Chromatin bound H1.0 = assay: LC-MS/MS of soluble and chromatin bound fractions of hADSCs after bleomycin; format: cell-based, human
# Experimental: as §3
# SR hADSCs, hADSCs treated with bleomycin for 2 hours (acute DNA damage) and hADSCs treated with bleomycin and allowed to senesce for 3 days (genotoxic stress induced senescence) were lysed and fractionated into soluble and chromatin bound fractions. These fractions were then subjected to LC-MS/MS analysis. Peptide expression levels were taken as the total area under the LC-MS/MS relative intensity curve, and individual peptides were unambiguously assigned to proteins using Pinpoint software, version 1.4 (Thermo Scientific). The areas of all peptides assigned to an individual protein were summed to yield protein expression levels, which were normalized against the total protein library size for each sample. For each cellular fraction, H1.0 peptide abundance is represented as a percentage of total H1.0 peptides observed in each condition. […]
# H1.0K180me2 [3] = assay: Western blot for H1.0K180me2 in SR hADSCs after bleomycin or temozolomide; format: cell-based, human; details: SR hADSCs treated for 2 hours, 50 μg/ml
# Excerpt: Material for western blot analysis (cultured cells or tissue) was lysed in ice-cold RIPA lysis buffer (Thermo Scientific 89900) and sonicated using a Covaris S2 sonicator (10% duty cycle, Intensity 5, Bursts per minute 100, 120 seconds). Total protein concentration in each sample was quantified using Quick Start Bradford 1× Dye Reagent (BioRad, 5000205) following manufacturer's protocol. Samples were then mixed with NUPAGE LDS sample loading buffer (ThermoFisher, NP0007) and NUPAGE sample reducing buffer (ThermoFisher, NP0004), and heat denatured at 70° C. for 10 minutes. Proteins were separated on 4-12% precast polyacrylamide gels (ThermoFisher, NP0321) by electrophoresis and transferred to 0.45 μm nitrocellulose membrane. The membrane was blocked with 5% non-fat milk in PBS-T for 30 minutes at RT then immunoblotted with the above primary antibodies at 4° C. overnight. Proteins were detected with HRP secondary antibodies listed above for 1 hour at RT followed by ECL Western Blotting Substrate (ThermoFisher, 32106) using manufacturer's instructions. All washes between steps were with PBS-T. Membranes were imaged with Omega LUM-C imaging system (Gel Company). […]
# SR hADSCs were treated for 2 hours with bleomycin or temozolomide, a compound that triggers base excision repair pathways. Cells were then lysed and analyzed be western blot for H1.0K180me2, γH2A.X and β-Actin.
# H1.0K180me2 [4] = assay: H1.0K180me2 on chromatin (western blot) and localization in hADSCs after bleomycin; format: cell-based, human
# Experimental: as §3
# as §1, with “minutes.” for “minutes. Proteins were separated on 4-12% precast polyacrylamide gels (ThermoFisher, NP0321) by electrophoresis and transferred to 0.45 μm nitrocellulose membrane.”
# [5] = acute DNA damage: bleomycin for 2 hours
# [6] = genotoxic stress induced senescence: bleomycin, then 3 days
# T1 sequence (P09874 whole entry): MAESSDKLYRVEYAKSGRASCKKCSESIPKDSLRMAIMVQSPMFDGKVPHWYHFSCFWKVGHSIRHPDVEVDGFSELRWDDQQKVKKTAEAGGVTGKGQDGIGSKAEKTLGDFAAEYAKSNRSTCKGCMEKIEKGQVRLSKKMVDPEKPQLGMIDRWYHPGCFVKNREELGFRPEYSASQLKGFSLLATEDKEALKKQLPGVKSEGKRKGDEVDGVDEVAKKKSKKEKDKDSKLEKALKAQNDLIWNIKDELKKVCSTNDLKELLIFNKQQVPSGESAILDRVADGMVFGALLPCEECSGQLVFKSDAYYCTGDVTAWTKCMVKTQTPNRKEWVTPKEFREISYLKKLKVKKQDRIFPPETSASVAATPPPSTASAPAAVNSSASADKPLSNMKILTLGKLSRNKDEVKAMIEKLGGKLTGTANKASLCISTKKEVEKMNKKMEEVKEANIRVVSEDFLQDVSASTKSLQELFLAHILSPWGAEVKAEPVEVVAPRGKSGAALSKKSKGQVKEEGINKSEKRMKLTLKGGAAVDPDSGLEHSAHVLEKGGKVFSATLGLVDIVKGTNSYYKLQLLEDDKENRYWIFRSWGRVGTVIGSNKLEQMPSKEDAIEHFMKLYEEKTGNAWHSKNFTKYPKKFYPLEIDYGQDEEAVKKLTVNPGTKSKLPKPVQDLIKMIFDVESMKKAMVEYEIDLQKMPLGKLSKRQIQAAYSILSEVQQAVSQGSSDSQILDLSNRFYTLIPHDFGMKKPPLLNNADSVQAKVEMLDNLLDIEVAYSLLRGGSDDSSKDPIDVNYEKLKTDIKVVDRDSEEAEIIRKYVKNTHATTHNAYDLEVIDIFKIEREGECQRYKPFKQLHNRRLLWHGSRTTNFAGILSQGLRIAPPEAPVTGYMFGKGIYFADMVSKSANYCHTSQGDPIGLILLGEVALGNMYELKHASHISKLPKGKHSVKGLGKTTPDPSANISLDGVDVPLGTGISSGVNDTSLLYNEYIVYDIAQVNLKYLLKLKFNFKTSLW
compound,measurement,setting,value
CN(C)Cc1ccc(-c2nc3cccc4c3n2CCNC4=O)cc1 [AG14361],poly-(ADP)-ribose (PAR) levels increased upon bleomycin treatment,PARP-1,abolished
same,accumulation of chromatin-bound H1.0K180me2,[1],increased accumulation
same,accumulation of chromatin-bound γH2A.X,[1],increased accumulation
"CO[C@H]1C[C@@H]2CC[C@@H](C)[C@@](O)(O2)C(=O)C(=O)N2CCCC[C@H]2C(=O)O[C@H]([C@H](C)C[C@@H]2CC[C@@H](OCCO)[C@H](OC)C2)CC(=O)[C@H](C)/C=C(\C)[C@@H](O)[C@@H](OC)C(=O)[C@H](C)C[C@H](C)/C=C/C=C/C=C/1C [everolimus, Everolimus]",appearance of H1.0K180me2 upon bleomycin treatment,H1.0K180me2 [2],reduced the appearance of H1.0K180me2
bleomycin sulfate,H1.0 mRNA expression increase over SR,histone H1.0 mRNA; [5],over 2 fold
same,H1.0 mRNA expression increase over SR,histone H1.0 mRNA; [6],1.5 fold
same,DNA fragmentation factor (DFFB/DFF40/CAD) secretion,"secreted H1.0K180me2; GSI-SEN, starting 48 hours after treatment",increase
same,secretion of H1.0K180me2 and DFFB upon onset of acute DNA damage (ADD),secreted H1.0K180me2; acute DNA damage,None of the protein is secreted in measurable quantities
same,secreted H1.0K180me2 in cell culture media,secreted H1.0K180me2; after 24 hours of bleomycin treatment,readily detected
same,time of maximal H1.0K180me2 secretion into conditioned medium,secreted H1.0K180me2; time course after bleomycin,≤ 48 h
same,"Chromatin bound H1.0, % of total H1.0 peptides",Chromatin bound H1.0; [5],~60%
same,"Chromatin bound H1.0, % of total H1.0 peptides",Chromatin bound H1.0; [6],~30%
same,induction of H1.0K180me2 methylation,H1.0K180me2 [3],capable of inducing H1.0K180me2 methylation
same,localization of H1.0K180me2,H1.0K180me2 [4]; SR hADSCs treated with bleomycin,localized to the cytoplasm
same,methylation of H1.0K180 on chromatin,"H1.0K180me2 [4]; bleomycin for 2 hours, chromatin bound fraction, western blot",methylation of H1.0K180 on the chromatin
